From patent publication US11584741B2, “Crystalline forms of 4-(5-(4,7-dimethylbenzofuran-2-yl)-1,2,4-oxadiazol-3-yl)benzoic acid and processes for their preparation” (King's College London, priority 2016, dated 2023)
Converted amounts (≈) assume the structure as drawn. “Also recorded” adds a separate entry of the source.

What was measured:
[1] = Dynamic vapour sorption (DVS) hygroscopicity; format: physicochemical; settings: from DVS, 0% to 95% RH
Description: The DVS studies were performed using a Surface Measurement Systems Ltd. DVS-1 No Video (Equipment #2126).
The sample was weighed in a glass pan, typically 20-30 mg, and equilibrated at 0% RH. After the material had dried, the relative humidity (RH) was increased with 10% per step for 1 hour per increment, ending at 95% RH.
The software used for data collection was DVSWn v3.01 No Video. Data analysis was performed using DVS Standard Analysis Suite v6.3.0 (Standard).
To determine the hygroscopicity of Form 1, a DVS plot was measured at 25° C. for a double sorption-desorption cycle. The total mass uptake was 8.7% w/w between 0% and 95% RH, which characterised Form 1 as a hygroscopic form. The uptake was reversible and reproducible.
To determine the hygroscopicity of Form 4, a DVS plot was measured at 25° C. for a double sorption-desorption cycle. The total mass uptake was 0.1% between 0% and 95% RH, which characterises Form 4 as a non-hygroscopic form.

[2] = Stability studies on storage (appearance, drug content, water content, drug-related impurities); format: physicochemical
Description: Stability studies were performed as follows. Samples were packaged in double low density polyethylene bags, sealed with plastic ties, and placed in high-density polyethylene (HDPE) drums.
The samples were tested periodically for visual appearance, drug content (by HPLC), water content (by Karl Fischer titration), and drug-related impurities (by HPLC).
Drug content, corrected to a water and solvent free basis, is calculated from the following equation: Content (%)=100−(water+solvents+residue on ignition+related impurities).
Drug-related impurities were determined using a reverse-phase gradient HPLC method with UV detection at 254 nm, using a 150 mm×4.6 mm, 3 μm Waters Atlantis T3 column, with the following parameters: […]

cerebellar neurons = test: Neurite outgrowth assay, cerebellar neurons in the presence of myelin / MAG; format: cell-based, rat; settings: for Effect on RARβ agonist (CD2019) mediated neurite outgrowth: cerebellar neurons cultured with CD2019 plus inhibitor; for Effect on RARβ agonist (CD2019) mediated neurite outgrowth in the presence of MAG: cerebellar neurons
Description: Cerebellar neurons isolated from post-natal day 3 rat pups were cultured over monolayers of parental 3T3 cells in control media, or media supplemented with a recombinant MAG-Fc chimera (R&D Systems) used at a final concentration of 20 μg/mL MAG-Fc. The monolayers were established for 24 hours prior to addition of the neurons and the co-cultures were maintained for approximately 21 hours. Following careful fixation with 4% paraformaldehyde, the neurons were immuno-stained with a GAP-43 antibody (from Graham Wilkin, Imperial College), dilution of 1:500, and the mean length of the longest neurite per cell was measured for approximately 120-150 neurons as previously described (see, e.g., Williams et al., 2005). DRG and cortical explants were obtained from adult rats, they were cultured in cellogen as previously described (see, e.g., Corcoran and Maden, 1999). Three explants per treatment were used. Neurite outgrowth was assessed 3 days later by immunohistochemistry with NF200 (Sigma, dilution of 1:200). The average lengths of the neurites were measured using image pro plus software. Media consisted of DMEM-F12 (Invitrogen) containing N2 (Invitrogen) supplemented with glucose (33 mM) and glutamine (2 mM).

[3] = tested on: rats with severed and re-implanted sensory roots at the level of the left forelimb; test: Sensory roots of four DRG severed and re-implanted into the spinal cord, sticky tape tests; format: in vivo; settings: rat, after 5 weeks, 1 mg/kg three times a week
Description: In another example of nerve injury, the four sensory roots from each of four DRG at the level of the left forelimb were severed and re-implanted into the spinal cord.
The results are illustrated in Borthwick et al., 2016. […] Rats were treated with 1 mg/kg of the test compound or vehicle two days after lesion, and then three times a week for the period of the experiment. Error bars show SEM. ***P<0.001, students t test, n=3-4 rats for each treatment group. At weeks 3, 4, and 5, there was significant difference between the rats treated with RARβ agonist as compared to rats treated with other retinoid agonists and vehicle.

[4] = Solubility studies, shake-flask method in 15 solvents; format: physicochemical; settings: for solubility at 24 h: 20° C.
Description: The solubility of BHBA-001 (characterised by XRPD as Form 1) was determined in 15 solvents to study the initial polymorphic behaviour. A shake-flask method was applied in which solid was added stepwise (e.g., 10 mg at a time) to a known amount of solvent (e.g., 3 mL). The solubility was confirmed visually. After the addition, the suspension/solution was held for 24 hours at 20° C. in order to check for slow dissolution or recrystallization. If the solid was not completely dissolved, the suspension was heated to 50° C. to encourage dissolution. The solvent was then removed by evaporation, in some cases, with the help of anti-solvent. The resulting solid was analysed using XRPD.

RARβ [5] = molecular target: T1, RARβ (Mus musculus, UniProt P22605); test: Transcriptional transactivation assay, gal4-RAR fusion receptor / luciferase reporter in COS-7 cells; format: cell-based
T1 construct: expressed in transfected cells; host or cells: COS-7
T1 sequence (P22605 210-444 limits assumed): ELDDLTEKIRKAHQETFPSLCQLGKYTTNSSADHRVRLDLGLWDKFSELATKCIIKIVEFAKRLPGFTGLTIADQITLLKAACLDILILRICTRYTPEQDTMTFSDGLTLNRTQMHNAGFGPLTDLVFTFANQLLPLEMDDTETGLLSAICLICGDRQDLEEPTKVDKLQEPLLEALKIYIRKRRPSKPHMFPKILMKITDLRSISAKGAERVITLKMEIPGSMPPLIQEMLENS
Description: (§1) Transcriptional transactivation assays were performed with gal4 fusion receptor constructs, created using each of the RAR ligand binding domains of either mouse or human, co-transfected with the pFR-luc (Stratagene) reporter construct in COS-7 cells.
(§2) Briefly, on day 1, 96 well plates were seeded with 8000 cells per well then left to recover overnight. On day 2, the cells were co-transfected with 100 ng of reporter plasmid and 10 ng of the appropriate receptor plasmid per well using lipofectamine (Invitrogen). On day 3, the lipofectamine containing media was replaced by a DMEM without phenol red, followed by the addition of test compound dissolved in 1 μL of DMSO to each well's 100 μL total volume. Finally, on day 4, the cells were lysed and their luciferase substrate was provided by the BrightGlo™ reagent (Promega), the plates were then read on the MicroBeta TrLux™ (Perkin Elmer).
(§3) Data for test compounds are quoted as EC50 values. Where replicate data has been generated, the data are quoted as the mean EC50 from the separate experiments.

RARβ [6] = molecular target: T2, RARβ (Homo sapiens, UniProt P10826); test: as above; format: cell-based; settings: Table 21
T2 construct: expressed in transfected cells; host or cells: COS-7
T2 sequence (P10826 183-417 limits assumed): T1 sequence (P22605 210-444 limits assumed)
Description: as §1, §2, §3

[7] = after 24 months at 25° C./60% RH and 6 months at 40° C./75% RH

## Cc1ccc(C)c2oc(-c3nc(-c4ccc(C(=O)O)cc4)no3)cc12 [Form 1, 4-(5-(4,7-dimethylbenzofuran-2-yl)-1,2,4-oxadiazol-3-yl)benzoic acid]
[1]
  Hygroscopicity characterisation: hygroscopic

## Cc1ccc(C)c2oc(-c3nc(-c4ccc(C(=O)O)cc4)no3)cc12 [Form 4, 4-(5-(4,7-dimethylbenzofuran-2-yl)-1,2,4-oxadiazol-3-yl)benzoic acid]
[1]
  Hygroscopicity characterisation: low hygroscopicity; also recorded: non-hygroscopic
[2]; 25° C./60% RH
  Storage time shown to be stable: at least 24 months
[2]; 25° C./60% RH, 3 months
  Drug Content: 98.7 % w/w
  Drug-Related Impurities: 0.06 % area
  Visual Appearance: As initial
  Water content: <0.1 % w/w
[2]; 25° C./60% RH, 6 months
  Drug Content: 100.2 % w/w
  Drug-Related Impurities: 0.05 % area
  Visual Appearance: As initial
  Water content: <0.1 % w/w
[2]; 25° C./60% RH, 9 months
  Drug Content: 99.2 % w/w
  Drug-Related Impurities: 0.03 % area
  Visual Appearance: As initial
  Water content: <0.1 % w/w
[2]; 25° C./60% RH, 12 months
  Drug Content: 100.4 % w/w
  Drug-Related Impurities: 0.03 % area
  Visual Appearance: Off-white
  Water content: <0.1 % w/w
[2]; 25° C./60% RH, 18 months
  Drug Content: 101.1 % w/w
  Drug-Related Impurities: 0.07 % area
  Visual Appearance: Off-white
  Water content: <0.1 % w/w
[2]; 25° C./60% RH, 24 months
  Drug Content: 101.5 % w/w
  Drug-Related Impurities: <0.03 % area
  Visual Appearance: As initial
  Water content: <0.1 % w/w
[2]; 40° C./75% RH
  Storage time shown to be stable: ≥ 6 months
[2]; 40° C./75% RH, 3 months
  Drug Content: 98.3 % w/w
  Drug-Related Impurities: 0.10 % area
  Visual Appearance: As initial
  Water content: <0.1 % w/w
[2]; 40° C./75% RH, 6 months
  Drug Content: 99.8 % w/w
  Drug-Related Impurities: 0.05 % area
  Visual Appearance: As initial
  Water content: <0.1 % w/w
[2]; Initial, 0 months
  Drug Content: 100.1 % w/w
  Drug-Related Impurities: 0.03 % area
  Visual Appearance: White
  Water content: <0.1 % w/w
[2]; [7]
  Change of appearance on storage: essentially unchanged
  Change of drug content on storage: essentially unchanged
  Change of drug-related impurity levels on storage: essentially unchanged
  Change of water content on storage: essentially unchanged
[2]; ambient conditions
  Stability at ambient conditions (in words): stable for many months

## CCCCCCOC(=O)[C@]1(O)C[C@@H]2O[C@@]1(C)n1c3ccccc3c3c4c(c5c6ccccc6n2c5c31)C(=O)NC4 [KT5720]
Cerebellar neurons
  Effect on RARβ agonist (CD2019) mediated neurite outgrowth: little or no effect
  Effect on RARβ agonist (CD2019) mediated neurite outgrowth in the presence of MAG: does not affect

## O=c1cc(N2CCOCC2)oc2c(-c3ccccc3)cccc12 [LY295002]
Cerebellar neurons
  Effect on RARβ agonist (CD2019) mediated neurite outgrowth: severely impeded
  Effect on RARβ agonist (CD2019) mediated neurite outgrowth in the presence of MAG: prevents

## Cc1ccc(C)c2oc(-c3nc(-c4ccc(C(=O)O)cc4)no3)cc12 [BHBA-001, 4-(5-(4,7-dimethylbenzofuran-2-yl)-1,2,4-oxadiazol-3-yl)benzoic acid]
[3]
  Behavioural test (sticky tape): performed as well as non-lesioned animals
[4]; in most solvents of the 15 tested
  Solubility (in words): only poorly soluble
[4]; organic solvent or mixture, thermodynamic from solid, 1-propanol, starting solid Form 1
  solubility at 24 h: < 3000 µg/mL
[4]; organic solvent or mixture, thermodynamic from solid, 2-methyltetrahydrofuran, starting solid Form 1
  solubility at 24 h: 5000 to 10000 µg/mL (≈ 15 to 29.9 mM)
[4]; organic solvent or mixture, thermodynamic from solid, 2-propanol, starting solid Form 1
  solubility at 24 h: < 3000 µg/mL
[4]; organic solvent or mixture, thermodynamic from solid, acetic acid, starting solid Form 1
  solubility at 24 h: < 4000 µg/mL
[4]; organic solvent or mixture, thermodynamic from solid, acetone, at 50° C. (footnote), starting solid Form 1
  solubility: < 3000 µg/mL
[4]; organic solvent or mixture, thermodynamic from solid, acetonitrile, starting solid Form 1
  solubility at 24 h: < 4000 µg/mL
[4]; organic solvent or mixture, thermodynamic from solid, dichloromethane, starting solid Form 1
  solubility at 24 h: < 3000 µg/mL
[4]; organic solvent or mixture, thermodynamic from solid, ethanol, starting solid Form 1
  solubility at 24 h: < 4000 µg/mL
[4]; organic solvent or mixture, thermodynamic from solid, ethyl acetate, starting solid Form 1
  solubility at 24 h: < 4000 µg/mL
[4]; organic solvent or mixture, thermodynamic from solid, isopropyl acetate, starting solid Form 1
  solubility at 24 h: 4000 µg/mL (≈ 12 mM)
[4]; organic solvent or mixture, thermodynamic from solid, methyl tert-butyl ether, starting solid Form 1
  solubility at 24 h: < 3000 µg/mL
[4]; organic solvent or mixture, thermodynamic from solid, n-heptane, starting solid Form 1
  solubility at 24 h: < 3000 µg/mL
[4]; organic solvent or mixture, thermodynamic from solid, tetrahydrofuran (THF), starting solid Form 1
  solubility at 24 h: 9000 to 30000 µg/mL (≈ 26.9 to 89.7 mM)
[4]; organic solvent or mixture, thermodynamic from solid, toluene, starting solid Form 1
  solubility at 24 h: < 3000 µg/mL
[4]; thermodynamic from solid, water, starting solid Form 1
  solubility at 24 h: < 3000 µg/mL
RARβ [5]; Mouse, Table 21
  Selectivity over RARγ: 6-fold
RARβ [5]; Table 20, mean of three or more determinations, species not given, value equals mouse value of Table 21
  EC50: < 2 nM
RARβ [6]
  Selectivity over RARα: 23-fold
  Selectivity over RARγ: 5-fold
